Assay results taken from patent US8952035B2, “Combination of anti-angiogenic substance and anti-tumor platinum complex” (Eisai R&D Management Co., Ltd., priority 2008, dated 2015).

Experiments:
[1] = tested on: Human non-small-cell lung cancer cell line A549; test: Combination use of E7080 and carboplatin in subcutaneous transplanted models (in vivo) of A549; set-up: species or system nude mouse; conditions: alone
Method: Human non-small-cell lung cancer cell line A549 (purchased from Dainippon Sumitomo Pharma Co., Ltd) was cultured in RPMI1640 (containing 10% FBS) in a 5% carbon dioxide gas incubator at 37° C. to about 80% confluence, and then the cells were collected with trypsin-EDTA. A 1×10^8 cells/mL suspension was prepared with a phosphate buffer, which was further added with matrigel matrix (purchased from Becton, Dickinson and Co.) to give a 5×10^7 cells/mL suspension, and each 0.2 mL of the resulting cell suspension was subcutaneously transplanted to a nude mouse at the side of its body. Eleven days after the transplantation, 4-(3-chloro-4-(cyclopropylaminocarbonyl)aminophenoxy)-7-methoxy-6-quinolinecarboxamide (E7080) was orally administered for 3 or 10 mg/kg, once a day for four weeks, while 100 mg/kg of carboplatin was administered into the tail vein on the first day. The major and minor axes of tumors were measured with Digimatic caliper (Mitsutoyo Corporation), and tumor volumes and relative tumor volumes were calculated according to the following formulae: Tumor Volume (TV)=Major axis of tumor(mm)×(Minor axis of tumor)^2(mm^2)/2 Relative Tumor Volume (RTV)=Tumor volume on measurement day/Tumor volume on the first administration day.
Tables 4 and 5 show anti-tumor effects obtained by the use of E7080 alone, the use of carboplatin alone and the combination use of E7080 and carboplatin in subcutaneous transplanted A549 models. The first day of administration was considered Day 1.

[2] = tested on: Human non-small-cell lung cancer cell line A549; test: Combination use of E7080 and cisplatin in subcutaneous transplanted models (in vivo) of A549; set-up: species or system nude mouse; conditions: alone
Method: Human non-small-cell lung cancer cell line A549 (purchased from Dainippon Sumitomo Pharma Co., Ltd) was cultured in RPMI1640 (containing 10% FBS) in a 5% carbon dioxide gas incubator at 37° C. to about 80% confluence, and then the cells were collected with trypsin-EDTA. A 1×10^8 cells/mL suspension was prepared with a phosphate buffer, which was further added with matrigel matrix (purchased from Becton, Dickinson and Co.) to give a 5×10^7 cells/mL suspension, and each 0.2 mL of the resulting cell suspension was subcutaneously transplanted to a nude mouse at the side of its body. Eleven days after the transplantation, 4-(3-chloro-4-(cyclopropylaminocarbonyl)aminophenoxy)-7-methoxy-6-quinolinecarboxamide (hereinafter, also referred to as “[…]”) was orally administered for 3, 10 or 30 mg/kg, once a day for four weeks, while 10 mg/kg of cisplatin was administered into the tail vein once a day. The major and minor axes of tumors were measured with Digimatic caliper (Mitsutoyo Corporation), and tumor volumes and relative tumor volumes were calculated according to the following formulae: Tumor Volume (TV)=Major axis of tumor(mm)×(Minor axis of tumor)^2(mm^2)/2 Relative Tumor Volume (RTV)=Tumor volume on measurement day/Tumor volume on the first administration day. […] Tables 1, 2 and 3 show anti-tumor effects obtained by the use of […] alone, the use of cisplatin alone and the combination use of […] and cisplatin in subcutaneous transplanted A549 models. The first day of administration was considered Day 1.

[3] = E7080 3 mg/kg orally once a day for four weeks
[4] = E7080 10 mg/kg orally once a day for four weeks

Structure (SMILES): N.N.O=C([O-])C1(C(=O)[O-])CCC1.[Pt+2] [Carboplatin, carboplatin, reference compound]
- Relative tumor volume on Day 29 Average ± standard deviation ([1]; Carboplatin 100 mg/kg into the tail vein on the first day): 7.87 ± 1.05

Structure (SMILES): N.N.[Cl][Pt][Cl] [Cisplatin, cisplatin, reference compound]
- Relative tumor volume on Day 29 Average ± standard deviation ([2]; Cisplatin 10 mg/kg into the tail vein): 7.99 ± 0.88

Structure (SMILES): COc1cc2nccc(Oc3ccc(NC(=O)NC4CC4)c(Cl)c3)c2cc1C(N)=O [E7080, 4-(3-chloro-4-(cyclopropylaminocarbonyl)aminophenoxy)-7-methoxy-6-quinolinecarboxamide]
- Relative tumor volume on Day 29 Average ± standard deviation [1, 3]: 2.24 ± 0.34
- Relative tumor volume on Day 29 Average ± standard deviation [1, 4]: 1.81 ± 0.29
- Relative tumor volume on Day 29 Average ± standard deviation [2, 3]: 2.24 ± 0.34
- Relative tumor volume on Day 29 Average ± standard deviation [2, 4]: 1.81 ± 0.29
- Relative tumor volume on Day 29 Average ± standard deviation ([2]; E7080 30 mg/kg orally once a day for four weeks): 1.20 ± 0.21
